Source: patent US9796702B2, “Dihydroquinoline pyrazolyl compounds” (Hoffmann-La Roche Inc., priority 2015, dated 2017)
pEC50: −log10 of the molar value.

Columns and labels:
[1] = molecular target: human CYP11B1 (Homo sapiens (Human), UniProt P15538); test: G-402 cellular enzyme assay, human CYP11B1 (cortisol release); type: cell-based; settings: G-402 cells expressing human CYP11B1; 1 μM Deoxycortisol
From the text: (§1) Herein we identified the use of the G-402 cell line as a host cell to ectopically express (transiently or stably) enzymes of the CYP11 family. Specifically we developed stable G-402 cells expressing ectopically human CYP11B1, human CYP11B2, human CYP11A1, cynmolgus CYP11B1 or cynomolgus CYP11B2 enzyme activity. Importantly the identified cell line G-402 expresses co-factors (adrenodoxin and adrenodoxin reductase) important for the activity of the CYP11 family and no relevant enzyme activity of the CYP11 family (in comparison to H295R cells) was detected in these cells. Therefore the G-402 cell line is uniquely suited as a host cell for the ectopic expression of enzymes from the CYP11 family.
(§2) G-402 cells can be obtained from ATCC (CRL-1440) and were originally derived from a renal leiomyoblastoma.
(§3) The expression plasmids contains the ORF for either human/cyno CYP11B1 or CYP11B2 under the control of a suitable promoter (CMV-promoter) and a suitable resistance marker (neomycin). Using standard techniques the expression plasmid is transfected into G-402 cells and these cells are then selected for expressing the given resistance markers. Individual cell-clones are then selected and assessed for displaying the desired enzymatic activity using 11-Deoxycorticosterone (Cyp11B2) or 11-Deoxycortisol (Cyp11B1) as a substrate.
(§4) G-402 cells expressing CYP11 constructs were established as described above and maintained in McCoy's 5a Medium Modified, ATCC Catalog No. 30-2007 containing 10% FCS and 400 μg/ml G418 (Geneticin) at 37° C. under an atmosphere of 5% CO2/95% air. Cellular enzyme assays were performed in DMEM/F12 medium containing 2.5% charcoal treated FCS and appropriate concentration of substrate (0.3-10 uM 11-Deoxycorticosterone, 11-Deoxycortisol or Corticosterone). For assaying enzymatic activity, cells were plated onto 96 well plates and incubated for 16 h. An aliquot of the supernatant is then transferred and analyzed for the concentration of the expected product (Aldosterone for CYP11B2; Cortisol for CYP11B1). The concentrations of these steroids can be determined using HTRF assays from CisBio analyzing either Aldosterone or Cortisol.
(§5) Inhibition of the release of produced steroids can be used as a measure of the respective enzyme inhibition by test compounds added during the cellular enzyme assay. The dose dependent inhibition of enzymatic activity by a compound is calculated by means of plotting added inhibitor concentrations (x-axes) vs. measured steroid/product level (y-axes). The inhibition is then calculated by fitting the following 4-parameter sigmoidal function (Morgan-Mercer-Flodin (MMF) model) to the raw data points using the least squares method:
(§6) [formula] wherein, A is the maximum y value, B is the EC50 factor determined using XLFit, C is the minimum y value and D is the slope value.
(§7) EC50 values for compounds claimed herein were tested with the G402-based assay system described. Cyp11B2 enzyme activity was tested in presence of 1 μM Deoxycorticosterone and variable amounts of inhibitors; Cyp11B1 enzyme activity was tested in presence of 1 μM Deoxycortisol and variable amounts of inhibitors.

[2] = molecular target: T1, CYP11B2 (Homo sapiens (Human), UniProt P19099); test: G-402 cellular enzyme assay, human CYP11B2 (aldosterone release); type: cell-based; settings: G-402 cells expressing human CYP11B2; 1 μM Deoxycorticosterone
T1 sequence (P19099 25-503): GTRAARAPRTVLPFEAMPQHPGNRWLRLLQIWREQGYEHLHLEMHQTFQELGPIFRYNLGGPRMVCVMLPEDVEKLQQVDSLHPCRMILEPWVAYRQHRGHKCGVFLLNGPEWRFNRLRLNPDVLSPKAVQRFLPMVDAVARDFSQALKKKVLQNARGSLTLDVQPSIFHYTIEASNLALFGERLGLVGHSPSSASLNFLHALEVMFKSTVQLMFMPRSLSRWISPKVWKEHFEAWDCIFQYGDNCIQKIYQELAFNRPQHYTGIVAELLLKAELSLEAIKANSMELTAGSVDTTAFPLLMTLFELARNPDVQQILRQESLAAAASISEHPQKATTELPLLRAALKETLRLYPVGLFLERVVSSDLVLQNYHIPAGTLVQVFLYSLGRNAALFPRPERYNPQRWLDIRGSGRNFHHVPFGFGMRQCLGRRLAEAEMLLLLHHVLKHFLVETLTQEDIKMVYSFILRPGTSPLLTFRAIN
From the text: as §1, §2, §3, §4, §5, §6, §7

[3] = rats with experimental heart failure; cited from earlier work
[4] = cited from earlier work; for plasma aldosterone: FAD286: 4 weeks of treatment, spironolactone: 4 and 8 weeks of treatment; for cardiac and aortic medial hypertrophy / renal effects (albuminuria, azotemia, renovascular hypertrophy, glomerular injury, PAI-1 and osteopontin mRNA, tubulointerstitial fibrosis): angiotensin II and high salt treatment, rat; for angiotensin II and salt-stimulated PAI-1 mRNA expression: aorta and heart
[5] = molecular target: T1, CYP11B2; settings: patients with primary aldosteronism, cited from earlier work
[6] = system: CYP11B2; settings: patients with primary aldosteronism; cited from earlier work

Sequence of human CYP11B1 (P15538 25-503): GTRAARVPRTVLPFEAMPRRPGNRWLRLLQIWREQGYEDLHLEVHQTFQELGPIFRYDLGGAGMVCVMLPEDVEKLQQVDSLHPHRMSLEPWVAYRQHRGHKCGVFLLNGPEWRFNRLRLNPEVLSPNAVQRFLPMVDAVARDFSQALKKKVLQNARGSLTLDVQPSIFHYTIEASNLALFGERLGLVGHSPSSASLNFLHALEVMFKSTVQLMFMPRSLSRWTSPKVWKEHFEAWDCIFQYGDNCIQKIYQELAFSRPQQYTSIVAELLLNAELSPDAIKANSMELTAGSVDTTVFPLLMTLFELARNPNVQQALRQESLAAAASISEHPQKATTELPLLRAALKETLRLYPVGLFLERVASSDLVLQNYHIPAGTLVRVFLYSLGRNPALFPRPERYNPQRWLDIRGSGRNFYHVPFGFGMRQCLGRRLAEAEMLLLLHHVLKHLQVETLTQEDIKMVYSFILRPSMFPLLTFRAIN

SMILES	pEC50 [1]	pEC50 [2]	other results
CC(=O)N1CCC(Cc2c[nH]nc2-c2ccc3c(c2F)CCC(=O)N3C)CC1 [Example 21, 6-[4-[(1-Acetyl-4-piperidyl)methyl]-1H-pyrazol-3-yl]-5-fluoro-1-methyl-3,4-dihydroquinolin-2-one]	9.35	10.92	
CN1C(=O)CCc2cc(-c3[nH]ncc3CC3CCN(C(=O)c4nccn4C)CC3)ccc21 [Example 32, 1-Methyl-6-[4-[[1-(1-methylimidazole-2-carbonyl)-4-piperidyl]methyl]-1H-pyrazol-3-yl]-3,4-dihydroquinolin-2-one]	9.45	10.53	
CC(=O)N1CC2(CC(Cc3c[nH]nc3-c3ccc4c(c3Cl)CCC(=O)N4C)C2)C1 [Example 40, 6-[4-[(2-Acetyl-2-azaspiro[3.3]heptan-6-yl)methyl]-1H-pyrazol-3-yl]-5-chloro-1-methyl-3,4-dihydroquinolin-2-one]	8.61	10.31	
N#Cc1ccc(C2CCCc3cncn32)cc1 (stereo not shown) [FAD286]			blood pressure and cardiovascular function and structure [3]: improved; kidney function and morphology [3]: improve; plasma aldosterone [4]: reduced; cardiac and aortic medial hypertrophy [4]: attenuated; renal effects (albuminuria, azotemia, renovascular hypertrophy, glomerular injury, PAI-1 and osteopontin mRNA, tubulointerstitial fibrosis) [4]: prevented these renal effects; angiotensin II and salt-stimulated PAI-1 mRNA expression [4]: not
CN1C(=O)CCc2cc(-c3n[nH]cc3CC3CCN(C(=O)c4cnn(C)c4)CC3)ccc21 [Example 17, 1-Methyl-6-[4-[[1-(1-methylpyrazole-4-carbonyl)-4-piperidyl]methyl]-1H-pyrazol-3-yl]-3,4-dihydroquinolin-2-one]	8.92		
CN1C(=O)CCc2cc(-c3[nH]ncc3CC3CCN(C(=O)c4cncn4C)CC3)ccc21 [Example 31, 1-Methyl-6-[4-[[1-(3-methylimidazole-4-carbonyl)-4-piperidyl]methyl]-1H-pyrazol-3-yl]-3,4-dihydroquinolin-2-one]	8.95	11.15	
CC(=O)N1CCC(Cc2c[nH]nc2-c2cc3c(cc2F)N(C)C(=O)CC3)CC1 [Example 19, 6-[4-[(1-Acetylpiperidin-4-yl)methyl]-1H-pyrazol-3-yl]-7-fluoro-1-methyl-3,4-dihydroquinolin-2-one]	9.38	10.77	
CN1C(=O)CCc2c1ccc(-c1[nH]ncc1CC1CCN(C(=O)c3ccncc3Cl)CC1)c2Cl [Example 30, 5-Chloro-6-[4-[[1-(3-chloropyridine-4-carbonyl)-4-piperidyl]methyl]-1H-pyrazol-3-yl]-1-methyl-3,4-dihydroquinolin-2-one]	8.61	10.72	
CCS(=O)(=O)N1CCC(Cc2c[nH]nc2-c2ccc3c(c2)CCC(=O)N3C)CC1 [Example 18, 6-[4-[(1-Ethylsulfonyl-4-piperidyl)methyl]-1H-pyrazol-3-yl]-1-methyl-3,4-dihydroquinolin-2-one]	9.66	11.28	
CN1C(=O)CCc2c1ccc(-c1n[nH]cc1CC1CC3(C1)CN(C(=O)c1cnn(C)c1)C3)c2Cl [Example 41, 5-Chloro-1-methyl-6-[4-[[2-(1-methylpyrazole-4-carbonyl)-2-azaspiro[3.3]heptan-6-yl]methyl]-1H-pyrazol-3-yl]-3,4-dihydroquinolin-2-one]	8.14	10.42	
CC(=O)S[C@@H]1CC2=CC(=O)CC[C@]2(C)[C@H]2CC[C@@]3(C)[C@@H](CC[C@@]34CCC(=O)O4)[C@H]12 [spironolactone]			plasma aldosterone [4]: increased; cardiac and aortic medial hypertrophy [4]: attenuated; renal effects (albuminuria, azotemia, renovascular hypertrophy, glomerular injury, PAI-1 and osteopontin mRNA, tubulointerstitial fibrosis) [4]: prevented these renal effects; angiotensin II and salt-stimulated PAI-1 mRNA expression [4]: enhanced
CN1C(=O)CCc2c1ccc(-c1n[nH]cc1CC1CCN(C(=O)c3cnn(C)c3)CC1)c2F [Example 20, 5-Fluoro-1-methyl-6-[4-[[1-(1-methylpyrazole-4-carbonyl)piperidin-4-yl]methyl]-1H-pyrazol-3-yl]-3,4-dihydroquinolin-2-one]	9.14		
CN1C(=O)CCc2c1ccc(-c1[nH]ncc1CC1CCN(C(=O)c3ncccc3Cl)CC1)c2Cl [Example 28, 5-Chloro-6-[4-[[1-(3-chloropyridine-2-carbonyl)-4-piperidyl]methyl]-1H-pyrazol-3-yl]-1-methyl-3,4-dihydroquinolin-2-one]	8.61	10.56	
CCS(=O)(=O)N1CC2(CC(Cc3c[nH]nc3-c3ccc4c(c3Cl)CCC(=O)N4C)C2)C1 [Example 39, 5-Chloro-6-[4-[(2-ethylsulfonyl-2-azaspiro[3.3]heptan-6-yl)methyl]-1H-pyrazol-3-yl]-1-methyl-3,4-dihydroquinolin-2-one]	9.67	11.23	
CC(=O)N1CCC(Cc2c[nH]nc2-c2ccc3c(c2)CCC(=O)N3C)CC1 [Example 16, 6-[4-[(1-Acetyl-4-piperidyl)methyl]-1H-pyrazol-3-yl]-1-methyl-3,4-dihydroquinolin-2-one]	9.57	10.55	
CN1C(=O)CCc2cc(-c3[nH]ncc3CC3CCN(C(=O)c4ncccc4Cl)CC3)ccc21 [Example 34, 6-[4-[[1-(3-Chloropyridine-2-carbonyl)-4-piperidyl]methyl]-1H-pyrazol-3-yl]-1-methyl-3,4-dihydroquinolin-2-one]	9.26	10.84	
CN1C(=O)CCc2c1ccc(-c1[nH]ncc1CC1CCN(C(=O)c3ccnn3C)CC1)c2Cl [Example 29, 5-Chloro-1-methyl-6-[4-[[1-(2-methylpyrazole-3-carbonyl)-4-piperidyl]methyl]-1H-pyrazol-3-yl]-3,4-dihydroquinolin-2-one]	8.48	10.79	
N#Cc1ccc([C@H]2CCc3cncn32)c(F)c1 [LCI699]			circulating aldosterone levels ([5]; oral): significantly lower; blood pressure [5]: mildly decreased; hypokalemia [5]: corrected; selectivity (effects on the glucocorticoid axis, cortisol synthesis) [6]: poor selectivity
CCS(=O)(=O)N1CCC(Cc2cn[nH]c2-c2ccc3c(c2F)CCC(=O)N3C)CC1 [Example 22, 6-[4-[(1-Ethylsulfonylpiperidin-4-yl)methyl]-1H-pyrazol-3-yl]-5-fluoro-1-methyl-3,4-dihydroquinolin-2-one]	9.88		
